Values quoted from earlier work as cited in patent US8008021B2, “N-terminal truncation of cardiac troponin subunits and their roles in cardiovascular disease” (Evanston Northwestern Healthcare, priority 2006, dated 2011).

Legend:
μ-calpain = biological target: T1, μ-calpain (Homo sapiens, UniProt P07384); settings: reference 43, cited from earlier work; for Ki: read-out: apparent inhibition constant Ki against μ-calpain
T1 sequence (P07384 1-714): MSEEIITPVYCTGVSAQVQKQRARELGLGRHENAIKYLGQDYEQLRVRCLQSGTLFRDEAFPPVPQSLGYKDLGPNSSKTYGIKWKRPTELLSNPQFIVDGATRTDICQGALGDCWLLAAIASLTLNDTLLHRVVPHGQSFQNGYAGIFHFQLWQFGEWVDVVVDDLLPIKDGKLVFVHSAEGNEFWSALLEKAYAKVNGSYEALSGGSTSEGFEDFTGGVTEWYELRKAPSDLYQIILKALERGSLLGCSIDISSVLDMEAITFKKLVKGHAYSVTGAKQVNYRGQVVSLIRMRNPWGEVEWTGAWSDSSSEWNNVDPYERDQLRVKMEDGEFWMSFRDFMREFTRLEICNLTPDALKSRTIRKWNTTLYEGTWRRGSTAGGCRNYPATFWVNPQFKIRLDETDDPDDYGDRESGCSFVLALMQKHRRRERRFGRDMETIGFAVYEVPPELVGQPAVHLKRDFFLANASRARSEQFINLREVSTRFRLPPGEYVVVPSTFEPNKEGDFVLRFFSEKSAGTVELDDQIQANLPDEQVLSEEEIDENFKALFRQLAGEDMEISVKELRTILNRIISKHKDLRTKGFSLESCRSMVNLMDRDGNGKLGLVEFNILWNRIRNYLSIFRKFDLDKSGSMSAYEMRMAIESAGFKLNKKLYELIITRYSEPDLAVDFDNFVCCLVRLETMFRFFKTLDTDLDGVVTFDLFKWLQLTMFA
T1 sequence (P04632 1-268 partner): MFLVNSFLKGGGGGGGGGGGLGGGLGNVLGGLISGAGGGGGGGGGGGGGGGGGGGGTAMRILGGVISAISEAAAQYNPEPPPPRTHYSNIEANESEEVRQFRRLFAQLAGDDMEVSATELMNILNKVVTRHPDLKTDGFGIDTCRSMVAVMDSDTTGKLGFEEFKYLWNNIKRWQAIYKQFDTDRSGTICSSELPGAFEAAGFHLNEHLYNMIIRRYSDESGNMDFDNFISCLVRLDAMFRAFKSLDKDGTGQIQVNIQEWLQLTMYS

m-calpain = biological target: T2, m-calpain (Homo sapiens, UniProt P17655); settings: reference 43; read-out: apparent inhibition constant Ki against m-calpain; cited from earlier work
T2 sequence (P17655 1-700): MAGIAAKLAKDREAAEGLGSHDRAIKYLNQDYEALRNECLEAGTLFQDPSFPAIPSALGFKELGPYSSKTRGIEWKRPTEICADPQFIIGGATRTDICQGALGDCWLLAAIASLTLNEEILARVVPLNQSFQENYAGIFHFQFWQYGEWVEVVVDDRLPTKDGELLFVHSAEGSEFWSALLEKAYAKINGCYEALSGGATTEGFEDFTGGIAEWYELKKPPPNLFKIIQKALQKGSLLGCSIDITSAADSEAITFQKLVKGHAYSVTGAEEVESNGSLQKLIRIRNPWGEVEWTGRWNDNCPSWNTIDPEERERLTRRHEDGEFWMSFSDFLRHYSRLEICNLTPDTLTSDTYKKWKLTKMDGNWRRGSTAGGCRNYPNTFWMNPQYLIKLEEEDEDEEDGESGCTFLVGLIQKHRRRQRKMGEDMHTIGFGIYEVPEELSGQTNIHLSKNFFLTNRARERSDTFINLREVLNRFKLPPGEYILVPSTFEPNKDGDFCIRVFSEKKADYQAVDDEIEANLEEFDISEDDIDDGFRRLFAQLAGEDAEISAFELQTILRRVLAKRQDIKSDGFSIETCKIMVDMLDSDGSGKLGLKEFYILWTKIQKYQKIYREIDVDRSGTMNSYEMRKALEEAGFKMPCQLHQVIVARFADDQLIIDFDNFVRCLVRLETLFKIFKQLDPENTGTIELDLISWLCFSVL
T2 sequence (P04632 1-268 partner): T1 sequence (P04632 1-268 partner)

For `O=C(O)/C(S)=C/c1ccc(I)cc1` [PD150606], the Ki (μ-calpain) is given as 210 ± 10 nM and the Ki (m-calpain) is given as 370 ± 30 nM.

For `O=C(O)/C(S)=C/c1c[nH]c2ccc(F)cc12` [PD151746], the “selectivity for μ-calpain over m-calpain” value (μ-calpain) is given as 20 fold, the Ki (μ-calpain) is given as 260 ± 30 nM and the Ki (m-calpain) is given as 5330 ± 770 nM.
